According to ChEMBL document CHEMBL4425119, “Design and Development of a Series of Potent and Selective Type II Inhibitors of CDK8” (ACS Med Chem Lett, 2016):

Experiments:
[1] = Permeability across basolateral to apical side of MDCK cells; type: ADME, cell-based, Canis lupus familiaris; conditions: dog
[2] = Permeability across apical to basolateral side of MDCK cells; type: ADME, cell-based, Canis lupus familiaris; conditions: dog, read-out: permeability

SMILES	Papp B→A [1]	Papp A→B [2]
CNc1nccc(N2CC[C@H](NC(=O)Nc3ccc(CN4CCN(C)CC4)c(C(F)(F)F)c3)C2)n1	4.5 ×10⁻⁶ cm/s	4.1 ×10⁻⁶ cm/s
CNc1nccc(N2CC[C@H](NC(=O)Nc3ccc(C)c(Cl)c3)C2)n1	7 ×10⁻⁶ cm/s	3.9 ×10⁻⁶ cm/s
CNc1nccc(N2CC[C@H](NC(=O)Nc3ccc(CN4CCOCC4)c(C(F)(F)F)c3)C2)n1	12.2 ×10⁻⁶ cm/s	12.4 ×10⁻⁶ cm/s
CNc1nccc(N2CC[C@H](NC(=O)Nc3ccc(Cl)c(C(F)(F)F)c3)C2)n1	4 ×10⁻⁶ cm/s	3.9 ×10⁻⁶ cm/s
CCN1CCN(Cc2ccc(NC(=O)N[C@H]3CCN(c4ccnc(NC)n4)C3)cc2C(F)(F)F)CC1	4.2 ×10⁻⁶ cm/s	0.3 ×10⁻⁶ cm/s
